US20180208605A1, “Substituted Aza Compounds as IRAK-4 Inhibitors” (AURIGENE DISCOVERY TECHNOLOGIES LIMITED, priority 2015, published 2018)
Where a name gives a salt, the structure may show the parent alone.

Molecular target: T1, recombinant IRAK-4 kinase (Homo sapiens, UniProt Q9NWZ3)
T1 construct: purchased Millipore, USA
T1 sequence (Q9NWZ3 1-460): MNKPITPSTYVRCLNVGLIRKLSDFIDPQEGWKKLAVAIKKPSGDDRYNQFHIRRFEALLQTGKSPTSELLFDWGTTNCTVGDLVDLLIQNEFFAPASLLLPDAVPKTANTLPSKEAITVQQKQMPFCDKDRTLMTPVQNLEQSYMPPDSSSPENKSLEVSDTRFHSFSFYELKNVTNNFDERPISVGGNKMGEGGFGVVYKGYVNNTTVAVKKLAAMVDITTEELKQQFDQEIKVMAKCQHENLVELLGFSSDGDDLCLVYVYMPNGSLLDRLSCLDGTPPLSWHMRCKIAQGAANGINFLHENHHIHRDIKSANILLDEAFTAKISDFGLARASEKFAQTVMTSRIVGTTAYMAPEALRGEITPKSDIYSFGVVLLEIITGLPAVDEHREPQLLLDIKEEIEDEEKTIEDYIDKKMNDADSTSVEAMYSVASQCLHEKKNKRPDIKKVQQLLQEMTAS
Assay: IRAK-4 Biochemical Assay (TR-FRET, percent inhibition)
Conditions: TR-FRET, 20 μM ATP, 100 nM Biotin Histone H3; for inhibition at 0.1 µM: read-out: % inhibition of IRAK-4 @0.1 μM, compound at 0.1 μM; for inhibition at 1 µM: read-out: % inhibition of IRAK-4 @ 1 μM, compound at 1 μM
Description: Compounds were tested for their potential to inhibit IRAK-4 enzyme in a TR-FRET assay using recombinant IRAK-4 kinase from Millipore, USA. The assay buffer was 50 mM Tris-HCl pH 7.5, 20 mM MgCl2, 1 mM EGTA, 2 mM DTT, 3 mM MnCl2 and 0.01% Tween 20.5 ng of IRAK-4 kinase was used for the assay. After pre-incubation of enzyme with test compound for 30 minutes at room temperature, a substrate mixture containing 100 nM Biotin Histone H3 (Millipore, USA) and 20 μM ATP (Sigma, USA) was added and the reaction was incubated for 30 min. Post incubation, the reaction was stopped by the addition of stop mix containing 40 mM EDTA, 1 nM of Europium-Anti-Phospho-Histone H3 (Ser10) antibody (Perkin Elmer, USA) and 20 nM SureLight Allophycocyanin-Streptavidin (Perkin Elmer, USA). The fluorescence emission at 615 nm and 665 nm were measured at an excitation of 340 nm and the percent inhibition was estimated from the ratio of the fluorescence intensities [(F665/F615)×10000].

Structure (SMILES) | inhibition at 0.1 µM | inhibition at 1 µM
Cc1cc(-c2ccc(C(=O)Nc3cc4sc(N5CCOCC5)nc4nc3N3CCC(O)(CO)CC3)o2)ccn1 [Example 2, N-(5-(4-hydroxy-4-(hydroxymethyl)piperidin-1-yl)-2-morpholinothiazolo[4,5-b]pyridin-6-yl)-5-(2-methylpyridin-4-yl)furan-2-carboxamide hydrochloride] | 98% | 99%
C[C@H](O)Cn1cc(-c2cccc(C(=O)Nc3cc4oc(N5CCOCC5)nc4nc3N3CC[C@@H](O)C3)n2)cn1 [Example 94, 6-(1-((S)-2-hydroxypropyl)-1H-pyrazol-4-yl)-N-(5-((R)-3-hydroxypyrrolidin-1-yl)-2-morpholinooxazolo[4,5-b]pyridin-6-yl)picolinamide] | 12% | 60%
O=C(Nc1cc2sc(N3CCOCC3)nc2nc1N1CCCCC1)c1cccc(-n2cc(CO)cn2)n1 [Example 69, 6-(4-(hydroxymethyl)-1H-pyrazol-1-yl)-N-(2-morpholino-5-(piperidin-1-yl)thiazolo[4,5-b]pyridin-6-yl)picolinamide] | 98% | 99%
Cc1cc(-c2c[nH]c(C(=O)Nc3cc4sc(N5CCOCC5)nc4nc3N3CC[C@@H](O)C3)n2)ccn1 [Example 72, (R)-N-(5-(3-hydroxypyrrolidin-1-yl)-2-morpholinothiazolo[4,5-b]pyridin-6-yl)-4-(2-methylpyridin-4-yl)-1H-imidazole-2-carboxamide 2,2,2-trifluoroacetate] | 98% | 97%
O=C(Nc1cc2sc(N3CCOCC3)nc2nc1N1CCCCC1)c1cccc(NCC2CCOCC2)n1 [Example 37, N-(2-morpholino-5-(piperidin-1-yl)thiazolo[4,5-b]pyridin-6-yl)-6-(((tetrahydro-2H-pyran-4-yl)methyl)amino)picolinamide] | 75% | 95%
N[C@H]1CCCCC1Nc1ccn2ncc(C(=O)Nc3cc4sc(N5CCOCC5)nc4nc3C3CC3)c2n1 (stereo partly drawn) [Example 98, 2,2,2-trifluoroacetate] | 94% | 97%
Cn1cc(-c2nc(C(=O)Nc3cc4sc(N5CCOCC5)nc4nc3N3CCCCC3)co2)ccc1=O [Example 3, 2-(1-methyl-6-oxo-1,6-dihydropyridin-3-yl)-N-(2-morpholino-5-(piperidin-1-yl)thiazolo[4,5-b]pyridin-6-yl)oxazole-4-carboxamide] | 97% | 98%
NC(=O)C1CCN(c2cccc(C(=O)Nc3cc4sc(N5CCOCC5)nc4nc3N3CCCCC3)n2)CC1 [Example 82, 6-(4-carbamoylpiperidin-1-yl)-N-(2-morpholino-5-(piperidin-1-yl)thiazolo[4,5-b]pyridin-6-yl)picolinamide] | 93% | 98%
NCc1cn(-c2cccc(C(=O)Nc3cc4sc(N5CCOCC5)nc4nc3N3CCCCC3)n2)cn1 [Example 70, 6-(4-(aminomethyl)-1H-imidazol-1-yl)-N-(2-morpholino-5-(piperidin-1-yl)thiazolo[4,5-b]pyridin-6-yl)picolinamide 2,2,2-trifluoroacetate] | 98% | 99%
Cc1cc(-c2nc(C(=O)Nc3cc4sc(N5CCNCC5)nc4nc3N3CCCCC3)co2)ccn1 [Example 7, 2-(2-methylpyridin-4-yl)-N-(2-(piperazin-1-yl)-5-(piperidin-1-yl)thiazolo[4,5-b]pyridin-6-yl)oxazole-4-carboxamide hydrochloride] | 99% | 99%
Cc1cc(-c2nc(C(=O)Nc3cc4sc(N5CCOCC5)nc4nc3OC3CCC(N4CCOCC4)CC3)co2)ccn1 (stereo not drawn) [Example 6, 2-(2-methylpyridin-4-yl)-N-(2-morpholino-5-(((1r,4r)-4-morpholinocyclohexyl)oxy)thiazolo[4,5-b]pyridin-6-yl)oxazole-4-carboxamide hydrochloride] | 100% | 100%
Cc1cc(-c2ccc(C(=O)Nc3cc4sc(N5CCOCC5)nc4nc3N3CCCC(O)(CO)C3)o2)ccn1 (stereo not drawn) [Example 5, N-(5-(3-hydroxy-3-(hydroxymethyl)piperidin-1-yl)-2-morpholinothiazolo[4,5-b]pyridin-6-yl)-5-(2-methylpyridin-4-yl)furan-2-carboxamide hydrochloride] | 98% | 99%
O=C(Nc1cc2oc(N3CCOCC3)nc2nc1N1CCCCC1)c1cnn2cccnc12 [Example 24, N-(2-morpholino-5-(piperidin-1-yl)oxazolo[4,5-b]pyridin-6-yl)pyrazolo[1,5-a]pyrimidine-3-carboxamide] | 97% | 97%
O=C(Nc1cc2sc(N3CCOCC3)nc2nc1N1CCCCC1)c1cncc(N2CCC(O)C2)n1 (stereo not drawn) [Example 54, 6-(3-hydroxypyrrolidin-1-yl)-N-(2-morpholino-5-(piperidin-1-yl)thiazolo[4,5-b]pyridin-6-yl)pyrazine-2-carboxamide hydrochloride] | 93% | 97%
COc1ccc(-c2nc(C(=O)Nc3cc4sc(N5CCOCC5)nc4nc3N3CCCCC3)co2)nc1 [Example 74, 2-(5-methoxypyridin-2-yl)-N-(2-morpholino-5-(piperidin-1-yl)thiazolo[4,5-b]pyridin-6-yl)oxazole-4-carboxamide] | 89% | 95%
O=C(Nc1cc2sc(N3CCOCC3)nc2nc1N1CCCCC1)c1ccnc(N2CCC(O)C2)n1 (stereo not drawn) [Example 53, 2-(3-hydroxypyrrolidin-1-yl)-N-(2-morpholino-5-(piperidin-1-yl)thiazolo[4,5-b]pyridin-6-yl)pyrimidine-4-carboxamide] | 90% | 97%
O=C(Nc1cc2sc(N3CCOCC3)nc2nc1N1CCCCC1)c1cnn2cccnc12 [Example 104, N-(2-morpholino-5-(piperidin-1-yl)thiazolo[4,5-b]pyridin-6-yl)pyrazolo[1,5-a]pyrimidine-3-carboxamide hydrochloride] | 95% | 97%
NCC(=O)O[C@H]1CCN(c2nccc(C(=O)Nc3cc4sc(N5CCOCC5)nc4nc3N3CCCCC3)n2)C1 [Example 64, (S)-1-(4-((2-morpholino-5-(piperidin-1-yl)thiazolo[4,5-b]pyridin-6-yl)carbamoyl)pyrimidin-2-yl)pyrrolidin-3-yl glycinate] | 74% | 92%
N[C@H]1CCN(c2cccc(C(=O)Nc3cc4sc(N5CCOCC5)nc4nc3N3CCCCC3)n2)C1 [Example 26, (S)-6-(3-aminopyrrolidin-1-yl)-N-(2-morpholino-5-(piperidin-1-yl)thiazolo[4,5-b]pyridin-6-yl)picolinamide] | 87% | 92%
O=C(Nc1cc2sc(N3CCOCC3)nc2nc1N1CCCCC1)c1cncc(N2CC[C@@H](O)C2)n1 [Example 62, (R)-6-(3-hydroxypyrrolidin-1-yl)-N-(2-morpholino-5-(piperidin-1-yl)thiazolo[4,5-b]pyridin-6-yl)pyrazine-2-carboxamide] | 93% | 95%
O=C(Nc1cc2sc(N3CCOCC3)nc2nc1N1CCCCC1)c1cccc(N2CC3CC2CO3)n1 (stereo not drawn) [Example 45, 6-(2-oxa-5-azabicyclo[2.2.1]heptan-5-yl)-N-(2-morpholino-5-(piperidin-1-yl)thiazolo[4,5-b]pyridin-6-yl)picolinamide] | 95% | 97%
